Measured values from patent US12507721B2, “Ready-to-use parenteral nutrition formulation” (BAXTER INTERNATIONAL INC., priority 2021, dated 2025).
Marks after values point to notes of the source that are not given here.

Columns and labels:
Format in all cases: physicochemical
[1] = Vitamin stability in 35% glucose solution during sterilization and storage; details: 35% glucose solution; for T1M40° C. concentration: 1 month at 40° C.; for T3M40° C. concentration: 3 months at 40° C.; for T6M40° C. concentration: 6 months at 40° C., B12 value (*) is the sum of cyanocobalamin and hydroxocobalamin
Experimental: (§1) For testing the stability of vitamin B12 in formulation as they are typically used in parenteral nutrition, a 35% glucose solution, a 14.2% amino acid formulation such as found, for example, in Olimel N9E (Baxter), and a 20% lipid emulsion such as found in Clinoleic 20% (Baxter) were supplemented with different vitamin combinations which always included vitamin B12. KCl was added into the glucose solution to understand if it has an effect on the stability of vitamin B12. Vitamin B1 was introduced as thiamin HCl. Ascorbyl palmitate was added to the lipid emulsion formulation as a stabilizing agent due to its antioxidant properties. In addition, two separate micellar solutions (“Vit A” and “Vit B”, see Table 9) comprising certain vitamins to be assessed with regard to degradation (B3, B6, B8, B9, B12, C) but formulated with different excipients as micellization agents were tested for vitamin B12 stability. Vit A consisted of a solution of mixed micelles with ascorbyl palmitate as a potential stability enhancer. Vit B was formulated with a mix of polysorbates, PEG and sorbitol to form micelles. The micellar solutions were prepared by mixing, under high speed, a solution composed of glycocholic acid and lecithins dissolved in water. In case of Vit B, the glycocholic acid and lecithin were replaced by PEG and polysorbate. All formulations were provided in standard flexible containers and overpouched with an aluminum overpouch for subsequent sterilization. For an overview over formulations and conditions see Table 9.
(§2) All samples were submitted to two different sterilization technologies. Steam sterilization targeting a F0=8 min was used for large volumes (400/800 ml, Cycle 2) and for small volumes (25/50 ml, Cycle 1) as lined out in Table 9 above. The same samples were sterilized by water spray sterilization with a serial tower continuous sterilization equipment with two different exposure times (Cycles 3 (25 min.) and 4 (19 min.)).
(§3) The vitamin recovery was then compared between the different sterilization cycles and formulations to understand the impact of the formulation and the sterilization technology used on their respective short- and long-term stability. Therefore, after sterilization, the samples were stored at 40° C./25% RH for 6 months to evaluate the recovery of vitamin B12 at T1M, T3M and T6M. Besides, backup samples were stored at 5° C. Finally, some samples were also stored at 25° C./40% RH to provide for real time stability data.

[2] = Vitamin B12 stability in 20% lipid emulsion during sterilization and storage; details: for T1M40° C. concentration: 1 month at 40° C.; for T6M40° C. concentration: 6 months at 40° C., sum of cyanocobalamin and hydroxocobalamin
Experimental: as §1, §2, §3
Vitamin B12 was also considerably degraded in the lipid emulsion (Tables 12 through 15). […] The instability of vitamin B12 in the standard lipid emulsions is probably linked to the presence of ascorbyl palmitate, which is generally present as an antioxidant. It should thus be avoided in formulations according to the invention.

[3] = Impact of pH on the stability of vitamin B12; details: 6 months at 40° C.
[4] = Vitamin B12 stability in dedicated formulations (Batches 1 to 4); details: aqueous formulation, optimized conditions (oxygen content, pH, sterilization method)
Experimental: Table 16 provides for the various batches which were prepared for testing the stability of vitamin B12 in each setting.
For Batches 1 to 3, concentrated emulsions (40%) were diluted with a factor of 8. The vitamin bulk was used to dilute the emulsion from 40% to 5%. The pH was adjusted at 5.9 with a citrate buffer for Batch 1 and a phosphate buffer for Batch 2. An adjustment to pH 6.5 was performed for Batch 3 with HCl. The final volume was provided by adding Milli-Q water. In case of Batches 2 and 3, EDTA and PVP K17 were added before filling up to the final volume. The emulsions were filtered with a 4.5 μm filter before filling. Flushing of the solutions using N2 was performed before starting the filling of each batch. The Batches were manufactured under exclusion of light and oxygen. The dissolved oxygen was measured at the beginning of the filling to ensure it remains <1.0 ppm. The headspace volume was set as small as possible (≤10 mL) and the filling volume limits was 100 mL per monobag, ±2 mL. To avoid any risk of vitamin degradation, an aluminum overpouch was used to protect each monobag. An oxygen absorber was placed between primary bag and overpouch. Seals were inspected before sterilization rack loading. Four samples per Batch were kept unsterilized for Batches 1 through 4. […]

[5] = 25 ml, Cycle 1 steam sterilization
[6] = 800 ml, Cycle 2 steam sterilization
[7] = 800 ml, Cycle 3 water spray sterilization
[8] = 800 ml, Cycle 4 water spray sterilization

Substance: cobalamin [Batch B12]
- Unsterilized T0 concentration ([1]; 25 ml (Table 10A)): 0.0062 mg/L
- T1M40° C. concentration [1, 5]: 0.0045 mg/L
- T3M40° C. concentration [1, 5]: 0.0037 mg/L
- Unsterilized T0 concentration ([1]; 800 ml (Table 10B)): 0.0062 mg/L
- Unsterilized T0 concentration ([1]; 800 ml (Table 11A)): 0.006 mg/L
- Unsterilized T0 concentration ([1]; 800 ml (Table 11B)): 0.006 mg/L
- T1M40° C. concentration [1, 6]: 0.0040 mg/L
- T3M40° C. concentration [1, 6]: 0.0036 mg/L
- Cycle 3 T0 concentration ([1]; 800 ml, Cycle 3 water spray sterilization, C0 = 25 minutes, after sterilization): 0.0051 mg/L
- T3M40° C. concentration [1, 7]: 0.0041 mg/L
- T6M40° C. concentration [1, 7]: 0.0023* mg/L
- Cycle 4 T0 concentration ([1]; 800 ml, Cycle 4 water spray sterilization, C0 = 19 minutes, after sterilization): 0.0052 mg/L
- T3M40° C. concentration [1, 8]: 0.0041 mg/L
- T6M40° C. concentration [1, 8]: 0.0031* mg/L
- Unsterilized T0 concentration ([2]; 20% lipid emulsion (Table 14)): 0.014 mg/L
- Unsterilized T0 concentration ([2]; 20% lipid emulsion (Table 15)): 0.014 mg/L
- Unsterilized T0 concentration ([2]; 20% lipid emulsion with ascorbyl palmitate (Table 12)): 0.015 mg/L
- T1M40° C. concentration ([2]; 20% lipid emulsion, Cycle 1 steam sterilization): 0.004 mg/L
- T3M40° C. concentration ([2]; 20% lipid emulsion, Cycle 1 steam sterilization, 3 months at 40° C.): <LOD
- T1M40° C. concentration ([2]; 20% lipid emulsion, Cycle 2 steam sterilization): <LOD
- Cycle 2 T0 concentration ([2]; 20% lipid emulsion, Cycle 2 steam sterilization, after sterilization): 0.005 mg/L
- T6M40° C. concentration ([2]; 20% lipid emulsion, Cycle 3 water spray sterilization (Table 14)): 0.0037* mg/L
- Cycle 3 T0 concentration ([2]; 20% lipid emulsion, Cycle 3 water spray sterilization (Table 14), after sterilization): 0.005 mg/L
- T6M40° C. concentration ([2]; 20% lipid emulsion, water spray sterilization (Table 15, head: Cycle 3)): 0.0055* mg/L
- Cycle 3 T0 concentration ([2]; 20% lipid emulsion, water spray sterilization with serial tower continuous sterilization equipment (Table 15, head: Cycle 3), after sterilization): 0.006 mg/L
- vitamin B12 (cyanocobalamin plus hydroxocobalamin) recovered ([3]; Batch 1: 5% olive oil emulsion, pH 7.0, C0=40 min): 53.8%
- vitamin B12 (cyanocobalamin plus hydroxocobalamin) recovered ([3]; Batch 2: 5% olive oil emulsion, pH 5.9, C0=80 min): 138%
- stability of vitamin B12 in Batch 4 [4]: remains stable up to T7M40 °C
